Measured values reported in the NIST ThermoML archive (doi:10.1016/j.jct.2008.11.012).

Assay: xn = mol fraction of the nth substance listed
Details: 101 kPa, Liquid; for viscosity: Concentric cylinders viscometry; for mass density: Vibrating tube method

NCCNCCN [di(2-aminoethyl)amine] + O
Details | mass density, 333.15 K [kg/m3] | mass density, 343.15 K [kg/m3] | mass density, 353.15 K [kg/m3] | mass density, 363.15 K [kg/m3] | viscosity, 333.15 K [mPa·s] | viscosity, 343.15 K [mPa·s] | viscosity, 353.15 K [mPa·s] | viscosity, 363.15 K [mPa·s]
x1 = 0.0095 | 985.5 | 980 | 973.8 | 967.3 | 0.5792 | 0.4978 | 0.4312 | 0.3693
x1 = 0.0299 | 986.5 | 980.8 | 974.6 | 967.7 | 0.8166 | 0.6873 | 0.5864 | 0.4995
x1 = 0.0565 | 991 | 984.7 | 978.1 | 970.9 | 1.283 | 1.044 | 0.8677 | 0.7364
x1 = 0.0696 | 992.4 | 985.8 | 978.9 | 971.7 | 1.562 | 1.244 | 1.017 | 0.8452
x1 = 0.1043 | 997.2 | 990.1 | 982.6 | 974.7 | 2.525 | 1.919 | 1.507 | 1.213
x1 = 0.125 | 998.2 | 990.5 | 982.3 | 974.2 | 3.206 | 2.376 | 1.824 | 1.439
x1 = 0.1591 | 999.9 | 992.3 | 982.9 | 974.2 | 4.43 | 3.174 | 2.373 | 1.84
x1 = 0.2076 | 996.3 | 987.6 | 978.5 | 969.5 | 5.698 | 3.938 | 2.852 | 2.148
x1 = 0.2449 | 993.1 | 984.2 | 975.1 | 966.1 | 6.271 | 4.293 | 3.086 | 2.311
x1 = 0.3099 | 984.1 | 975.4 | 966.3 | 957 | 6.366 | 4.372 | 3.151 | 2.365
x1 = 0.3438 | 979.6 | 970.7 | 961.7 | 952.6 | 6.191 | 4.277 | 3.1 | 2.337
x1 = 0.4112 | 969.2 | 960.5 | 951.7 | 942.7 | 5.44 | 3.846 | 2.841 | 2.176
x1 = 0.4974 | 956.8 | 949.5 | 940.8 | 931.9 | 4.572 | 3.308 | 2.502 | 1.955
x1 = 0.6111 | 945.1 | 936.5 | 927.8 | 919.1 | 3.62 | 2.721 | 2.118 | 1.696
x1 = 0.6988 | 937.3 | 929.1 | 920.4 | 911.8 | 3.083 | 2.366 | 1.876 | 1.526
x1 = 0.8073 | 929.1 | 920.7 | 912.2 | 903.6 | 2.618 | 2.067 | 1.677 | 1.387
x1 = 0.8954 | 922.9 | 914.6 | 906.1 | 897.5 | 2.301 | 1.833 | 1.504 | 1.26
x1 = 1 | 917 | 908.9 | 900.4 | 891.9 | 2.109 | 1.703 | 1.409 | 1.19
